Key:
AZD1775 = compound: C=CCn1c(=O)c2cnc(Nc3ccc(N4CCN(C)CC4)cc3)nc2n1-c1cccc(C(C)(C)O)n1 [AZD1775]; conditions: max 3 µM
Summary of the method: (§1)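 Cancer cell lines were plated in 1536-well plates in 7.5 μl of DMEM/F12 or RPMI with 10% FBS and kept 24 hours at 37°C and 5% CO2 before 72 hours of dosing, with final DMSO typically 0.2%. CellTiter-Glo 2.0 luminescence measured viability, scaled between blank-well and DMSO-well means. Dose responses were fitted to a two-parameter logistic curve with a non-linear mixed effects model. This fit gives the single-agent IC50.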

SRA737 = compound: N#Cc1cnc(Nc2cc(NC[C@H]3CNCCO3)c(C(F)(F)F)cn2)cn1 [SRA737]; conditions: max 10 µM
Summary of the method: as §1

Lapatinib = compound: CS(=O)(=O)CCNCc1ccc(-c2ccc3ncnc(Nc4ccc(OCc5cccc(F)c5)c(Cl)c4)c3c2)o1 [Lapatinib]; conditions: max 10 µM
Summary of the method: as §1

AZD4320 = compound: CN(CC[C@H](CSC1=CC=CC=C1)NC2=C(C=C(C=C2)S(=O)(=O)NC(=O)C3=CC=C(C=C3)N4CCC(CC4)[C@H](C5=CC=CC=C5C6=CC=C(C=C6)Cl)O)S(=O)(=O)C(F)(F)F)CCO [AZD4320]; conditions: max 1 µM
Summary of the method: as §1

SN-38 = compound: CCc1c2c(nc3ccc(O)cc13)-c1cc3c(c(=O)n1C2)COC(=O)[C@]3(O)CC [SN-38]; conditions: max 0.3 µM
Summary of the method: as §1

Carboplatin = compound: C1CC(C1)(C(=O)[O-])C(=O)[O-].N.N.[Pt+2] [Carboplatin]; conditions: max 10 µM
Summary of the method: as §1

Gefitinib = compound: COc1cc2ncnc(Nc3ccc(F)c(Cl)c3)c2cc1OCCCN1CCOCC1 [Gefitinib]; conditions: max 10 µM
Summary of the method: as §1

Palbociclib = compound: CC(=O)c1c(C)c2cnc(Nc3ccc(N4CCNCC4)cn3)nc2n(C2CCCC2)c1=O [Palbociclib]; conditions: max 10 µM
Summary of the method: as §1

Dasatinib = compound: CC1=C(C(=CC=C1)Cl)NC(=O)C2=CN=C(S2)NC3=CC(=NC(=N3)C)N4CCN(CC4)CCO [Dasatinib]; conditions: max 2 µM
Summary of the method: as §1

Trametinib = compound: CC(=O)Nc1cccc(-n2c(=O)n(C3CC3)c(=O)c3c(Nc4ccc(I)cc4F)n(C)c(=O)c(C)c32)c1 [Trametinib]; conditions: max 1 µM
Summary of the method: as §1

AZD5363 = compound: C1CN(CCC1(C(=O)N[C@@H](CCO)C2=CC=C(C=C2)Cl)N)C3=NC=NC4=C3C=CN4 [AZD5363]; conditions: max 10 µM
Summary of the method: as §1

AZD5153 = compound: COc1nnc2ccc(N3CCC(c4ccc(OCCN5CCN(C)C(=O)[C@H]5C)cc4)CC3)nn12 [AZD5153]; conditions: max 1 µM
Summary of the method: as §1

MK-2206 = compound: NC1(c2ccc(-c3nc4ccn5c(=O)[nH]nc5c4cc3-c3ccccc3)cc2)CCC1 [MK-2206]; conditions: max 10 µM
Summary of the method: as §1

AZD1390 = compound: CC(C)n1c(=O)n(C)c2cnc3cc(F)c(-c4ccc(OCCCN5CCCCC5)nc4)cc3c21 [AZD1390]; conditions: max 0.3 µM
Summary of the method: as §1

Olaparib = compound: O=C(c1cc(Cc2n[nH]c(=O)c3ccccc23)ccc1F)N1CCN(C(=O)C2CC2)CC1 [Olaparib]; conditions: max 10 µM
Summary of the method: as §1

[1] = compound: O=C(Nc1ccc2[nH]nc(-c3ccncc3)c2c1)[C@@H]1CCN(CC(=O)N2CCN(c3ccc(-c4ncccn4)cc3)CC2)C1; conditions: max 5 µM
Summary of the method: as §1

Savolitinib = compound: C[C@@H](c1ccc2nccn2c1)n1nnc2ncc(-c3cnn(C)c3)nc21 [Savolitinib]; conditions: max 1 µM
Summary of the method: as §1

Selumetinib = compound: Cn1cnc2c(F)c(Nc3ccc(Br)cc3Cl)c(C(=O)NOCCO)cc21 [Selumetinib]; conditions: max 10 µM
Summary of the method: as §1

Etoposide = compound: COc1cc([C@@H]2c3cc4c(cc3[C@@H](O[C@@H]3O[C@@H]5CO[C@@H](C)O[C@H]5[C@H](O)[C@H]3O)[C@H]3COC(=O)[C@H]23)OCO4)cc(OC)c1O [Etoposide]; conditions: max 10 µM
Summary of the method: as §1

Crizotinib = compound: C[C@@H](Oc1cc(-c2cnn(C3CCNCC3)c2)cnc1N)c1c(Cl)ccc(F)c1Cl [Crizotinib]; conditions: max 10 µM
Summary of the method: as §1

AZD7648 = compound: Cc1cc2ncnn2cc1Nc1ncc2c(n1)n(C1CCOCC1)c(=O)n2C [AZD7648]; conditions: max 10 µM
Summary of the method: as §1

AZD2811 = compound: CCN(CCO)CCCOc1ccc2c(Nc3cc(CC(=O)Nc4cccc(F)c4)[nH]n3)ncnc2c1 [AZD2811]; conditions: max 1 µM
Summary of the method: as §1

Gemcitabine = compound: Nc1ccn([C@@H]2O[C@H](CO)[C@@H](O)C2(F)F)c(=O)n1 [Gemcitabine]; conditions: max 0.3 µM
Summary of the method: as §1

Venetoclax = compound: CC1(C)CCC(CN2CCN(c3ccc(C(=O)NS(=O)(=O)c4ccc(NCC5CCOCC5)c([N+](=O)[O-])c4)c(Oc4cnc5[nH]ccc5c4)c3)CC2)=C(c2ccc(Cl)cc2)C1 [Venetoclax]; conditions: max 1 µM
Summary of the method: as §1

Doxorubicin = compound: COc1cccc2c1C(=O)c1c(O)c3c(c(O)c1C2=O)C[C@@](O)(C(=O)CO)C[C@@H]3O[C@H]1C[C@H](N)[C@H](O)[C@H](C)O1 [Doxorubicin]; conditions: max 1 µM
Summary of the method: as §1

AZD8186 = compound: C[C@@H](Nc1cc(F)cc(F)c1)c1cc(C(=O)N(C)C)cc2c(=O)cc(N3CCOCC3)oc12 [AZD8186]; conditions: max 10 µM
Summary of the method: as §1

Prexasertib = compound: COc1cccc(OCCCN)c1-c1cc(Nc2cnc(C#N)cn2)n[nH]1 [Prexasertib]; conditions: max 1 µM
Summary of the method: as §1

SG3199 = compound: CC1=CN2[C@@H](C1)C=NC3=CC(=C(C=C3C2=O)OC)OCCCCCOC4=C(C=C5C(=C4)N=C[C@@H]6CC(=CN6C5=O)C)OC [SG3199]; conditions: max 0.001 µM
Summary of the method: as §1

Alisertib = compound: COc1cc(Nc2ncc3c(n2)-c2ccc(Cl)cc2C(c2c(F)cccc2OC)=NC3)ccc1C(=O)O [Alisertib]; conditions: max 10 µM
Summary of the method: as §1

AZD5991 = compound: Cc1c2c(nn1C)CSCc1cc(n(C)n1)CSc1cc(c3ccccc3c1)OCCCc1c(C(=O)O)n(C)c3c-2c(Cl)ccc13 [AZD5991]; conditions: max 1 µM
Summary of the method: as §1

AZD0156 = compound: CN(C)CCCOc1ccc(-c2ccc3ncc4c(c3c2)n(C2CCOCC2)c(=O)n4C)cn1 [AZD0156]; conditions: max 3 µM
Summary of the method: as §1

Paclitaxel = compound: CC(=O)O[C@H]1C(=O)[C@@]2(C)[C@H]([C@H](OC(=O)c3ccccc3)[C@]3(O)C[C@H](OC(=O)[C@H](O)[C@@H](NC(=O)c4ccccc4)c4ccccc4)C(C)=C1C3(C)C)[C@]1(OC(C)=O)CO[C@@H]1C[C@@H]2O [Paclitaxel]; conditions: max 3 µM
Summary of the method: as §1

5-Fluorouracil = compound: O=c1[nH]cc(F)c(=O)[nH]1 [5-Fluorouracil]; conditions: max 20 µM
Summary of the method: as §1

Taselisib = compound: Cc1nc(-c2cn3c(n2)-c2ccc(-c4cnn(C(C)(C)C(N)=O)c4)cc2OCC3)n(C(C)C)n1 [Taselisib]; conditions: max 10 µM
Summary of the method: as §1

AZD6738 = compound: C[C@@H]1COCCN1C2=NC(=NC(=C2)C3(CC3)[S@](=N)(=O)C)C4=C5C=CNC5=NC=C4 [AZD6738]; conditions: max 10 µM
Summary of the method: as §1

Cell Line | IC50, cell viability 72 h (AZD1775) [nM] | IC50, cell viability 72 h (SRA737) [µM] | IC50, cell viability 72 h (Lapatinib) [µM] | IC50, cell viability 72 h (AZD4320) [nM] | IC50, cell viability 72 h (SN-38) [nM] | IC50, cell viability 72 h (Carboplatin) [µM] | IC50, cell viability 72 h (Gefitinib) [µM] | IC50, cell viability 72 h (Palbociclib) [µM] | IC50, cell viability 72 h (Dasatinib) [nM] | IC50, cell viability 72 h (Trametinib) [nM] | IC50, cell viability 72 h (AZD5363) [µM] | IC50, cell viability 72 h (AZD5153) [nM] | IC50, cell viability 72 h (MK-2206) [µM] | IC50, cell viability 72 h (AZD1390) [nM] | IC50, cell viability 72 h (Olaparib) [µM] | IC50, cell viability 72 h [1] [µM] | IC50, cell viability 72 h (Savolitinib) [nM] | IC50, cell viability 72 h (Selumetinib) [µM] | IC50, cell viability 72 h (Etoposide) [µM] | IC50, cell viability 72 h (Crizotinib) [µM] | IC50, cell viability 72 h (AZD7648) [µM] | IC50, cell viability 72 h (AZD2811) [nM] | IC50, cell viability 72 h (Gemcitabine) [nM] | IC50, cell viability 72 h (Venetoclax) [nM] | IC50, cell viability 72 h (Doxorubicin) [nM] | IC50, cell viability 72 h (AZD8186) [µM] | IC50, cell viability 72 h (Prexasertib) [nM] | IC50, cell viability 72 h (SG3199) [nM] | IC50, cell viability 72 h (Alisertib) [nM] | IC50, cell viability 72 h (AZD5991) [nM] | IC50, cell viability 72 h (AZD0156) [nM] | IC50, cell viability 72 h (Paclitaxel) [nM] | IC50, cell viability 72 h (5-Fluorouracil) [µM] | IC50, cell viability 72 h (Taselisib) [µM] | IC50, cell viability 72 h (AZD6738) [µM]
PANC-02-03 (Pancreatic Carcinoma) | 1790 | > 10 | > 10 | > 1000 | 137 | > 10 | > 10 | > 10 | > 2000 | 259 | > 10 | 494 | > 10 | > 300 | > 10 | 2.93 | > 1000 | > 10 | > 10 | > 10 | > 10 | > 1000 | > 300 | > 1000 | > 1000 | > 10 | 405 | > 1 | > 10000 | > 1000 | > 3000 | 1670 | > 20 | > 10 | > 10
PC-14 (Lung Adenocarcinoma) | 407 | 3.33 | 1.7 | > 1000 | 104 | > 10 | 0.127 | > 10 | 129 | 453 | > 10 | > 1000 | > 10 | > 300 | > 10 | > 5 | > 1000 | > 10 | > 10 | 6.02 | > 10 | > 1000 | 56.2 | > 1000 | > 1000 | > 10 | 25.4 | > 1 | 2960 | > 1000 | > 3000 | 8.94 | > 20 | 4.7 | 2.68
RMG-I (Ovarian Carcinoma) | > 3000 | > 10 | > 10 | 593 | > 300 | > 10 | > 10 | > 10 | > 2000 | > 1000 | > 10 | 647 | > 10 | > 300 | > 10 | > 5 | > 1000 | > 10 | > 10 | > 10 | > 10 | > 1000 | > 300 | > 1000 | > 1000 | > 10 | 301 | > 1 | > 10000 | > 1000 | > 3000 | > 3000 | > 20 | 8.32 | > 10
SK-MM-2 (Plasma Cell Myeloma) | > 3000 | > 10 | > 10 | 3.02 | 76.4 | > 10 | > 10 | > 10 | > 2000 | > 1000 | > 10 | 32.5 | > 10 | > 300 | > 10 | > 5 | > 1000 | > 10 | > 10 | > 10 | > 10 | > 1000 | > 300 | 2.5 | > 1000 | > 10 | 119 | > 1 | 1810 | > 1000 | > 3000 | > 3000 | > 20 | > 10 | > 10
SW684 (Other Solid Carcinomas) | > 3000 | > 10 | > 10 | > 1000 | > 300 | > 10 | > 10 | > 10 | > 2000 | > 1000 | > 10 | > 1000 | > 10 | > 300 | > 10 | > 5 | > 1000 | > 10 | > 10 | > 10 | > 10 | > 1000 | > 300 | > 1000 | > 1000 | > 10 | > 1000 | > 1 | > 10000 | > 1000 | > 3000 | 1430 | > 20 | 3.53 | > 10
